Test results: patent publication US20250262298A1, “STING MODULATOR COMPOUNDS WITH SULFAMATE LINKAGES, AND METHODS OF MAKING AND USING” (TAKEDA PHARMACEUTICAL COMPANY LIMITED, priority 2018, published 2025)

Tests used:
[1] = tested on: THP1-Dual cells (Lucia luciferase under ISG54 promoter); test: THP-1 Dual Lucia reporter gene assay; assay type: cell-based, human; conditions: luminescence signal induction, 20 hours at 37° C.
Description: THP1-Dual™ cells (InvivoGen #thpd-nfis) were derived from the human THP-1 monocyte cell line by stable integration of the Lucia luciferase gene, a secreted luciferase reporter gene, under the control of an ISG54 (interferon-stimulated gene) minimal promoter in conjunction with five interferon (IFN)-stimulated response elements. On the day of experiment, the cells were plated to a black, 384-well plate (Corning 356697) at 7500 cells/25 μl per well density in growth media (RPMI 1640, 2 mM L-glutamine, 25 mM HEPES, 10% heat-inactivated fetal bovine serum, 100 μg/mL Normocin™, 50 U/mL-50 μg/mL Pen-Strep, 10 μg/mL of blasticidin, and 100 μg/mL of Zeocin). The cell plates were dosed with 62.5 nL of the testing compounds, and then incubated at 37° C. for 20 hours. At the end of the incubation, 15 μL/well of the QUANTI-Luc™ (InvivoGen #rep-qlc1) were added, and luminescence was measured immediately using the LeadSeeker.
For the assay method described above, test compound percent luminescence signal induction, at various concentrations, was calculated relative to untreated and DMSO only treated samples. Compound concentration versus percent signal induction curves were fitted to generate EC50 values. One skilled in the art will appreciate that the values generated as EC50 values are subject to experimental variation.

Human STING = Human STING (Homo sapiens (Human), UniProt Q86WV6, H232R); test: Human STING TR-FRET assay; assay type: binding; conditions: human STING residues 140-379 (H232R), 100 nM; fluorescein labeled ligand 100 nM; 60 minutes at rt
Description: Human STING (accession number GB:BC047779) DNA encoding residues 140-379 (H232R) was cloned into pET28 as N-terminal HIS and C-terminal Avi tagged fusion protein, and a rTEV cleavage site between HIS tag and STING. The sequence was verified before recombinant protein expression using E. coli expression system.
For expression, STING expression vector was transformed into BL21(DE3) cells. The expression was induced by adding IPTG and expressing in 16° C. for 20 hours.
For purification, STING was purified by Nickel affinity resin (Thermo Scientific #25215), followed by TEV enzyme cleavage and Superdex 200 column (GE Healthcare #28-9893-35) purification. For site directed in vitro biotinylation, purified Avi-tagged STING protein was incubated with Biotin (SUPELCO #47868), ATP (SIGMA #A-7699) and BirA enzyme, followed by further purification through a Superdex 200 column (GE Healthcare #28-9893-35). Biotinylation was confirmed by Mass Spectrometry analysis.
40 nL of test compounds in DMSO were added to wells in a white, 384 well microtitre plate (Greiner 784075). 2 uL STING assay buffer (PBS and 0.01% BSA) containing fluorescein labeled ligand (c[G(2′,5′)p-2′-Fluo-AHC-A(3′,5′)p]-Biolog C 195, 100 nM final) and Tb labeled Streptavidin (Streptavidin-Tb cryptate-CisBio 610SATLB) were added. Then 2 uL STING assay buffer containing STING protein (100 nM final) was added and the mixture was incubated at rt for 60 minutes. The plates were then read on a BMG PheraStar Plus reader (LanthaScreen module).
For the assay method described above, test compound percent inhibition, at various concentrations, was calculated relative to untreated and DMSO only treated samples. Compound concentration versus percent inhibition curves were fitted to generate IC50 values. One skilled in the art will appreciate that the values generated either as percentage inhibition at a single concentration or IC50 values are subject to experimental variation.

Human STING, sequence (Q86WV6 140-379 H232R): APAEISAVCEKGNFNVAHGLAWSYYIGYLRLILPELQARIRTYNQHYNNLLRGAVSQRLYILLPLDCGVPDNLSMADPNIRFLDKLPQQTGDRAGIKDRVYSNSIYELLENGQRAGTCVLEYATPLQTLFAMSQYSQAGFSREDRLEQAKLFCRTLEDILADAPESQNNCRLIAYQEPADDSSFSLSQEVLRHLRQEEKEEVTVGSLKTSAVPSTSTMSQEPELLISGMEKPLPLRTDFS

| SMILES | EC50 ([1]; Homo sapiens, THP1-Dual, 20 h) [nM] | IC50 (Human STING) [nM] | EC50 [1] [nM] |
| --- | --- | --- | --- |
| Nc1nc2c(ncn2[C@@H]2O[C@@H]3COP(=O)(S)O[C@H]4C[C@H](Oc5ccncn5)C[C@@H]4CNS(=O)(=O)O[C@@H]2C3)c(=O)[nH]1 (single isomer, unassigned) [Compound I-1] | > 25000 |  |  |
| Nc1nc2c(ncn2[C@@H]2O[C@@H]3CNS(=O)(=O)O[C@H]4C[C@H](n5cnc6c(N)ncnc65)O[C@@H]4COP(=O)(S)O[C@@H]2C3)c(=O)[nH]1 (single isomer, unassigned) [Compound I-2a] |  | > 100000 | > 25000 |
| Nc1nc2c(ncn2[C@@H]2O[C@@H]3CNS(=O)(=O)O[C@H]4C[C@H](n5cnc6c(N)ncnc65)O[C@@H]4COP(=O)(S)O[C@@H]2C3)c(=O)[nH]1 (single isomer, unassigned) [Compound I-2b] |  | 10000 to 100000 | 10000 to 25000 |
| Nc1nc2c(ncn2[C@@H]2O[C@@H]3COP(=O)(S)O[C@H]4C[C@H](n5cnc6c(N)ncnc65)O[C@@H]4CNS(=O)(=O)O[C@@H]2C3)c(=O)[nH]1 (single isomer, unassigned) [Compound I-3] | < 1000 | < 1000 |  |
| Nc1nc2c(ncn2[C@@H]2O[C@@H]3COP(=O)(S)O[C@H]4[C@@H](F)[C@H](n5cnc6c(N)ncnc65)O[C@@H]4CNS(=O)(=O)O[C@@H]2C3)c(=O)[nH]1 (single isomer, unassigned) [Compound I-4a] | < 1000 | < 1000 |  |
| Nc1nc2c(ncn2[C@@H]2O[C@@H]3COP(=O)(S)O[C@H]4[C@@H](F)[C@H](n5cnc6c(N)ncnc65)O[C@@H]4CNS(=O)(=O)O[C@@H]2C3)c(=O)[nH]1 (single isomer, unassigned) [Compound I-4b] |  | < 1000 | < 1000 |
| Nc1nc2c(ncn2[C@@H]2O[C@@H]3CNS(=O)(=O)O[C@H]4C[C@H](n5cnc6cncnc65)C[C@@H]4COP(=O)(S)O[C@@H]2C3)c(=O)[nH]1 (single isomer, unassigned) [Compound I-6] | > 25000 | > 100000 |  |
| Nc1nc2c(ncn2[C@@H]2O[C@@H]3COP(=O)(S)O[C@H]4C[C@H](n5nnc6cncnc65)C[C@@H]4CNS(=O)(=O)O[C@@H]2C3)c(=O)[nH]1 (single isomer, unassigned) [Compound I-7] | > 25000 | 10000 to 100000 |  |
| Nc1nc2c(ncn2[C@@H]2O[C@@H]3COP(=O)(S)O[C@H]4C[C@H](n5cnc6cncnc65)C[C@@H]4CNS(=O)(=O)O[C@@H]2C3)c(=O)[nH]1 (single isomer, unassigned) [Compound I-8] | 1000 to 10000 | 1000 to 10000 |  |
| Nc1nc2c(ncn2[C@@H]2O[C@@H]3COP(=O)(S)O[C@H]4[C@@H](F)[C@H](n5cnc6cncnc65)O[C@@H]4CNS(=O)(=O)O[C@@H]2[C@@H]3F)c(=O)[nH]1 (single isomer, unassigned) [Compound I-10] | < 1000 | < 1000 |  |
| Nc1nc2c(ncn2[C@@H]2O[C@@H]3COP(=O)(S)O[C@H]4[C@@H](F)[C@H](n5cnc6cncnc65)O[C@@H]4CNS(=O)(=O)O[C@@H]2C3)c(=O)[nH]1 (single isomer, unassigned) [Compound I-11a] | < 1000 | < 1000 |  |
| Nc1nc2c(ncn2[C@@H]2O[C@@H]3COP(=O)(S)O[C@H]4[C@@H](F)[C@H](n5cnc6cncnc65)O[C@@H]4CNS(=O)(=O)O[C@@H]2C3)c(=O)[nH]1 (single isomer, unassigned) [Compound I-11b] |  |  | < 1000 |
| Nc1nc2c(ncn2[C@@H]2O[C@@H]3COS(=O)(=O)N[C@H]4C[C@H](n5cnc6c(N)ncnc65)O[C@@H]4COP(=O)(S)O[C@@H]2C3)c(=O)[nH]1 (single isomer, unassigned) [Compound I-12a] | < 1000 | < 1000 |  |
| Nc1nc2c(ncn2[C@@H]2O[C@@H]3COS(=O)(=O)N[C@H]4C[C@H](n5cnc6c(N)ncnc65)O[C@@H]4COP(=O)(S)O[C@@H]2C3)c(=O)[nH]1 (single isomer, unassigned) [Compound I-12b] | > 25000 | 1000 to 10000 |  |
| Nc1nc2c(ncn2[C@@H]2O[C@@H]3COP(=O)(S)O[C@H]4[C@@H](F)[C@H](n5cnc6cncnc65)O[C@@H]4CNS(=O)(=O)O[C@@H]2[C@@H]3OCC(F)(F)F)c(=O)[nH]1 (single isomer, unassigned) [Compound I-13a] | < 1000 | < 1000 |  |
| Nc1nc2c(ncn2[C@@H]2O[C@@H]3COP(=O)(S)O[C@H]4[C@@H](F)[C@H](n5cnc6cncnc65)O[C@@H]4CNS(=O)(=O)O[C@@H]2[C@@H]3OCC(F)(F)F)c(=O)[nH]1 (single isomer, unassigned) [Compound I-13b] |  | < 1000 | < 1000 |
| Nc1nc2c(ncn2[C@@H]2O[C@@H]3CO[P@](=O)(S)O[C@@H]4[C@@H](CNS(=O)(=O)O[C@@H]2C3)C[C@@H](n2cnc3cncnc32)[C@@H]4F)c(=O)[nH]1 (single isomer, unassigned) [Compound I-14] |  | < 1000 | < 1000 |
| Nc1nc2c(ncn2[C@@H]2O[C@@H]3COP(=O)(S)O[C@H]4[C@@H](F)[C@H](n5cnc6c(=O)[nH]cnc65)O[C@@H]4CNS(=O)(=O)O[C@@H]2C3)c(=O)[nH]1 (single isomer, unassigned) [Compound I-15] | < 1000 |  |  |
| Nc1nc2c(ncn2[C@@H]2O[C@@H]3COP(=O)(S)O[C@H]4[C@@H](F)[C@H](n5cnc6c(N)ncnc65)O[C@@H]4CNS(=O)(=O)O[C@@H]2[C@@H]3F)c(=O)[nH]1 (single isomer, unassigned) [Compound I-16] | < 1000 | < 1000 |  |
| Nc1nc2c(ncn2[C@@H]2O[C@@H]3COS(=O)(=O)N[C@H]4[C@@H](F)[C@H](n5cnc6c(N)ncnc65)O[C@@H]4COP(=O)(S)O[C@@H]2C3)c(=O)[nH]1 (single isomer, unassigned) [Compound I-17] | < 1000 | < 1000 |  |
| Cn1cc([C@@H]2O[C@@H]3CNS(=O)(=O)O[C@@H]4C[C@@H](COP(=O)(S)O[C@H]3[C@H]2F)O[C@H]4n2cnc3c(=O)[nH]c(N)nc32)c2ncnc(N)c21 (single isomer, unassigned) [Compound I-19] | > 25000 | 1000 to 10000 |  |
| Nc1ncnc2c1ncn2[C@@H]1O[C@@H]2CNS(=O)(=O)O[C@@H]3C[C@@H](COP(=O)(S)O[C@H]2[C@H]1F)O[C@H]3n1cc(F)c2c(=O)[nH]cnc21 (single isomer, unassigned) [Compound I-20] | 1000 to 10000 | < 1000 |  |
| Nc1nc2c(ncn2[C@@H]2O[C@@H]3COP(=O)(O)O[C@H]4C[C@H](n5cnc6c(N)ncnc65)O[C@@H]4CNS(=O)(=O)O[C@@H]2C3)c(=O)[nH]1 [Compound I-5, 2-amino-9-[(5S,7R,8R,12aR,14R,15aS)-14-(6-amino-9H-purin-9-yl)-2-hydroxy-2,10,10-trioxidodecahydro-5,8-methanofuro[2,3-m][1,3,6,9,10,11,2]tetraoxathiazaphosphacyclotetradecin-7-yl]-1,9-dihydro-6H-purin-6-one] | < 1000 | 1000 to 10000 |  |
| Nc1nc2c(ncn2[C@@H]2O[C@@H]3CNS(=O)(=O)O[C@H]4C[C@H](n5cnc6c(N)ncnc65)O[C@@H]4COP(=O)(O)O[C@@H]2C3)c(=O)[nH]1 [Compound I-9, 2-amino-9-[(5S,7R,8R,12aR,14R,15aS)-14-(6-amino-9H-purin-9-yl)-10-hydroxy-2,2,10-trioxidooctahydro-3H,12H-5,8-methanofuro[3,2-l][1,3,6,11,10,9,2]tetraoxathiazaphosphacyclotetradecin-7-yl]-1,9-dihydro-6H-purin-6-one] | > 25000 | 10000 to 100000 |  |
